Data as given in the supplement of paper PMC13380429.

Legend:
Conditions in all cases: 72 h
Caco-2 [1] = assay: cell viability relative to DMSO; higher = less toxic
Calu-3 [2] = assay: as above
HepG2 [3] = assay: as above
U2OS [4] = assay: as above
Vero E6 [5] = assay: as above
Caco-2 [6] = assay: relative viability EC50 (midpoint between 100% and the lowest measured viability); higher = less toxic
Calu-3 [7] = assay: as above
HepG2 [8] = assay: as above
U2OS [9] = assay: as above
Vero E6 [10] = assay: as above
Caco-2 [11] = assay: drug sensitivity score (DSS) for viability; higher = more toxic; extreme values may be limits of the assay
Calu-3 [12] = assay: as above
HepG2 [13] = assay: as above
U2OS [14] = assay: as above
Vero E6 [15] = assay: as above

| SMILES | cell viability (Caco-2 [1]; 1 nM) [%] | cell viability (Caco-2 [1]; 10 nM) [%] | cell viability (Caco-2 [1]; 100 nM) [%] | cell viability (Caco-2 [1]; 1000 nM) [%] | cell viability (Caco-2 [1]; 10000 nM) [%] | cell viability (Calu-3 [2]; 1 nM) [%] | cell viability (Calu-3 [2]; 10 nM) [%] | cell viability (Calu-3 [2]; 100 nM) [%] | cell viability (Calu-3 [2]; 1000 nM) [%] | cell viability (Calu-3 [2]; 10000 nM) [%] | cell viability (HepG2 [3]; 1 nM) [%] | cell viability (HepG2 [3]; 10 nM) [%] | cell viability (HepG2 [3]; 100 nM) [%] | cell viability (HepG2 [3]; 1000 nM) [%] | cell viability (HepG2 [3]; 10000 nM) [%] | cell viability (U2OS [4]; 1 nM) [%] | cell viability (U2OS [4]; 10 nM) [%] | cell viability (U2OS [4]; 100 nM) [%] | cell viability (U2OS [4]; 1000 nM) [%] | cell viability (U2OS [4]; 10000 nM) [%] | cell viability (Vero E6 [5]; 1 nM) [%] | cell viability (Vero E6 [5]; 10 nM) [%] | cell viability (Vero E6 [5]; 100 nM) [%] | cell viability (Vero E6 [5]; 1000 nM) [%] | cell viability (Vero E6 [5]; 10000 nM) [%] | relative viability EC50 (Caco-2 [6]) [µM] | relative viability EC50 (Calu-3 [7]) [µM] | relative viability EC50 (HepG2 [8]) [µM] | relative viability EC50 (U2OS [9]) [µM] | relative viability EC50 (Vero E6 [10]) [µM] | drug sensitivity score (Caco-2 [11]) | drug sensitivity score (Calu-3 [12]) | drug sensitivity score (HepG2 [13]) | drug sensitivity score (U2OS [14]) | drug sensitivity score (Vero E6 [15]) |
| --- | --- | --- | --- | --- | --- | --- | --- | --- | --- | --- | --- | --- | --- | --- | --- | --- | --- | --- | --- | --- | --- | --- | --- | --- | --- | --- | --- | --- | --- | --- | --- | --- | --- | --- | --- |
| CNC(=O)[C@@H](c1ccccc1)N1CCc2cc(OC)c(OC)cc2[C@@H]1CCc1ccc(C(F)(F)F)cc1 [almorexant] | 92.1 | 99.3 | 96.1 | 108 | 76 | 94.3 | 91.6 | 94.4 | 95.9 | 98.4 | 102 | 103 | 99.5 | 94.2 | 94.1 | 94.7 | 104 | 91.2 | 99.4 | 92.6 | 97.4 | 93 | 95.4 | 92.3 | 109 | > 10 | > 10 | > 10 | > 10 | > 10 | 0.6 | 0 | 0 | 0 | 0 |
| O=C(O)c1cc(=O)c2ccccc2[nH]1 [kynurenic-acid] | 94.9 | 101 | 99.6 | 99.6 | 106 | 89.7 | 89.2 | 97.1 | 94.1 | 104 | 93.9 | 94.2 | 99.1 | 108 | 96 | 104 | 101 | 103 | 97 | 98.8 | 96.9 | 98.7 | 97.6 | 97.5 | 97.7 | > 10 | > 10 | > 10 | > 10 | > 10 | 0 | 0 | 0 | 0 | 0 |
| C[C@]12CCC(=O)C(O)=C1CC[C@@H]1[C@@H]2CC[C@]2(C)C(=O)CC[C@@H]12 [formestane] | 114 | 96.9 | 95 | 105 | 117 | 98.7 | 96.1 | 91.4 | 93.8 | 93.3 | 117 | 111 | 108 | 112 | 98.6 | 102 | 98.2 | 102 | 95.3 | 105 | 97.8 | 92.4 | 86.7 | 103 | 104 | > 10 | > 10 | > 10 | > 10 | > 10 | 0 | 0 | 0 | 0 | 0 |
| NC(N)=Nc1nc(CSCCN/C=N/S(=O)(=O)c2ccc(Br)cc2)cs1 [ebrotidine] | 97.8 | 102 | 95 | 99.5 | 99.9 | 96 | 101 | 94.8 | 101 | 93.3 | 98.2 | 97.6 | 112 | 93.4 | 86.5 | 100 | 103 | 98.6 | 106 | 98.9 | 88.7 | 91.8 | 97.7 | 90.6 | 105 | > 10 | > 10 | > 10 | > 10 | > 10 | 0 | 0 | 0.5 | 0 | 0 |
| Cn1cnc2c(NCc3ccccc3)nc(NCCO)nc21 [olomoucine] | 97.5 | 93.3 | 92.5 | 98.7 | 106 | 102 | 97.9 | 96 | 99.9 | 105 | 106 | 106 | 96.4 | 112 | 114 | 103 | 101 | 103 | 96.9 | 108 | 93 | 98.1 | 96 | 99.7 | 104 | > 10 | > 10 | > 10 | > 10 | > 10 | 0 | 0 | 0 | 0 | 0 |
| CCCC(=O)C1(c2ccccc2)CCN(C(=O)[C@@H](Cc2ccc(OC)cc2)NC(=O)[C@@H](N)Cc2cncn2C)CC1 | 108 | 94.9 | 97.3 | 102 | 99.7 | 98.3 | 100 | 96.6 | 101 | 106 | 95.4 | 105 | 97.8 | 118 | 95.3 | 98.8 | 97.9 | 104 | 102 | 97.7 | 102 | 101 | 98.7 | 102 | 97.1 | > 10 | > 10 | > 10 | > 10 | > 10 | 0 | 0 | 0 | 0 | 0 |
| Fc1ccc(-c2c3cccc(C(F)(F)F)c3nn2Cc2ccc(F)cc2Cl)cc1 [LXR-623] | 102 | 92 | 94.5 | 96.5 | 83.2 | 101 | 97.3 | 97 | 93.7 | 91.2 | 95.5 | 94.4 | 87.9 | 90.2 | 77.2 | 102 | 98.2 | 102 | 97.1 | 97.4 | 105 | 105 | 102 | 98 | 98.6 | > 10 | > 10 | > 10 | > 10 | > 10 | 0.2 | 0 | 1.9 | 0 | 0 |
| COc1ccc2ccc(=O)oc2c1CC=C(C)C [osthol] | 94.3 | 95.1 | 94 | 100 | 101 | 86.6 | 98.2 | 104 | 114 | 108 | 96.5 | 105 | 98.8 | 106 | 100 | 92.9 | 100 | 93.3 | 99 | 102 | 95.1 | 94.4 | 95.9 | 93.2 | 99.2 | > 10 | > 10 | > 10 | > 10 | > 10 | 0 | 0 | 0 | 0 | 0 |
| CCC(=O)OCC(=O)[C@@]1(OC(=O)CC)[C@H](C)C[C@H]2[C@H]3[C@H]([C@@H](O)C[C@@]21C)[C@@]1(C)C=CC(=O)C=C1C[C@H]3Cl [alclometasone-dipropionate] | 97.3 | 101 | 99.7 | 94.7 | 96.8 | 96 | 88.1 | 90.2 | 95.6 | 97.6 | 103 | 101 | 112 | 90.4 | 91.1 | 97.2 | 97 | 91.7 | 96.6 | 90.8 | 108 | 101 | 104 | 98 | 106 | > 10 | > 10 | > 10 | > 10 | > 10 | 0 | 0 | 0 | 0 | 0 |
| O=C(CNC(=O)c1cccc(C(F)(F)F)c1)N[C@@H]1CCN(Cc2ccc(Cl)cc2)C1 [teijin-compound-1] | 113 | 108 | 106 | 98.8 | 78 | 95.9 | 98.8 | 95.9 | 94.4 | 91.5 | 108 | 110 | 107 | 92 | 83.8 | 95.7 | 98.5 | 95.6 | 99.7 | 91.1 | 109 | 102 | 100 | 98.1 | 94.8 | > 10 | > 10 | > 10 | > 10 | > 10 | 0.9 | 0 | 1 | 0 | 0 |
| O=[N+]([O-])c1cn2c(n1)OC[C@@H](OCc1ccc(-c3ccc(OC(F)(F)F)cc3)nc1)C2 [TBA-354] | 99.5 | 95.4 | 103 | 92.1 | 92.9 | 101 | 103 | 106 | 96.1 | 98.5 | 92.9 | 108 | 89.4 | 110 | 105 | 98.3 | 98.8 | 102 | 100 | 98.8 | 96.7 | 101 | 93.6 | 99 | 104 | > 10 | > 10 | > 10 | > 10 | > 10 | 0 | 0 | 0 | 0 | 0 |
| CC(C)[C@](O)(c1ccc2cc(OC(F)F)c(OC(F)F)cc2c1)c1c[nH]nn1 [VT-464] | 93.3 | 103 | 105 | 95.1 | 88.3 | 104 | 101 | 93.2 | 93 | 96.5 | 101 | 104 | 98.1 | 109 | 90.8 | 96.3 | 101 | 99.2 | 102 | 93 | 98.8 | 103 | 99.3 | 98.2 | 94.5 | > 10 | > 10 | > 10 | > 10 | > 10 | 0.2 | 0 | 0 | 0 | 0 |
| C#Cc1cccc(Nc2ncnc3cc(OC)c(OCCCCCCC(=O)NO)cc23)c1 [CUDC-101] | 97 | 89.7 | 90.6 | 81.8 | 39.6 | 96.7 | 98.8 | 81.5 | 37.2 | 9 | 96.3 | 110 | 94.9 | 25.7 | 0.1 | 97.7 | 99.6 | 93.4 | 68.5 | 2 | 98.6 | 96 | 94.6 | 80.2 | 8.4 | 1.55 | 0.419 | 0.548 | 1.41 | 1.67 | 5.4 | 14.1 | 14.7 | 9.6 | 8.2 |
| CC(C)[C@@H](C)/C=C/[C@@H](C)[C@H]1CC[C@H]2/C(=C/C=C3\C[C@@H](O)CC[C@@H]3C)CCC[C@]12C [dihydrotachysterol] | 108 | 96 | 100 | 104 | 103 | 97.4 | 99.7 | 97.7 | 99.6 | 97.7 | 92.8 | 94.3 | 95.8 | 93.2 | 106 | 104 | 93.1 | 101 | 99.3 | 100 | 101 | 100 | 98.1 | 102 | 110 | > 10 | > 10 | > 10 | > 10 | > 10 | 0 | 0 | 0 | 0 | 0 |
